Like-named read-outs stand apart in the source and are kept apart here. Each block holds one molecule with its values, some of them ahead of it.
Key:
[1] = ester bond, 18-membered ring, PyBOP/HOBt/DIEA
K-RasG12V (Capan-1) = test: Potency assay: cellular pERK (AlphaLISA SureFire or In-Cell Western), Capan-1; type: cell-based; conditions: Homo sapiens; Capan-1 cells; 4 hours; in at least one of the assays (AlphaLISA or In-Cell Western); read-out: pERK IC50 with respect to K-RasG12V (Capan-1)
Source text: The purpose of this assay is to measure the ability of test compounds to inhibit K-Ras in cells. Activated K-Ras induces increased phosphorylation of ERK at Threonine 202 and Tyrosine 204 (PERK). This procedure measures a decrease in cellular pERK in response to test compounds. The procedure described below in Capan-1 cells is applicable to K-RasG12V.
Note: This protocol may be executed substituting other cell lines to characterize inhibitors of other RAS variants, including, for example, NCI-H358 (K-Ras G12C), AsPC-1 (K-Ras G12D), Capan-1 (K-Ras G12V), or NCI-H1355 (K-Ras G13C).
Cells are grown and maintained using media and procedures recommended by the ATCC. On the day prior to compound addition, cells are plated in 384-well cell culture plates (40 μl/well) and grown overnight in a 37° C., 5% CO2 incubator. Test compounds are prepared in 10, 3-fold dilutions in DMSO, with a high concentration of 10 mM. On the day of assay, 40 nL of test compound is added to each well of cell culture plate using an Echo550 liquid handler (LabCyte®). Concentrations of test compound are tested in duplicate. After compound addition, cells are incubated 4 hours at 37° C., 5% CO2. Following incubation, culture medium is removed, and cells are washed once with phosphate buffered saline.
In some experiments, cellular pERK level is determined using the AlphaLISA SureFire Ultra p-ERK1/2 Assay Kit (PerkinElmer). Cells are lysed in 25 μL lysis buffer, with shaking at 600 RPM at room temperature. Lysate (10 μL) is transferred to a 384-well Opti-plate (PerkinElmer) and 5 μL acceptor mix is added. After a 2-hour incubation in the dark, 5 μL donor mix is added, plate is sealed, and incubated 2 hours at room temperature. Signal is read on an Envision plate reader (PerkinElmer) using standard AlphaLISA settings. Analysis of raw data is carried out in Excel (Microsoft) and Prism (GraphPad). Signal is plotted vs. the decadal logarithm of compound concentration, and IC50 is determined by fitting a 4-parameter sigmoidal concentration response model.
In other experiments, cellular pERK is determined by In-Cell Western. Following compound treatment, cells are washed twice with 200 μL tris buffered saline (TBS) and fixed for 15 minutes with 150 μL 4% paraformaldehyde in TBS. Fixed cells are washed 4 times for 5 minutes with TBS containing 0.1% Triton X-100 (TBST) and then blocked with 100 μL Odyssey blocking buffer (LI-COR) for 60 minutes at room temperature. Primary antibody (PERK, CST-4370, Cell Signaling Technology) is diluted 1:200 in blocking buffer, and 50 μL is added to each well and incubated overnight at 4° C. Cells are washed 4 times for 5 minutes with TBST. Secondary antibody (IR-800CW rabbit, LI-COR, diluted 1:800) and DNA stain DRAQ5 (LI-COR, diluted 1:2000) are added and incubated 1-2 hours at room temperature. Cells are washed 4 times for 5 minutes with TBST. Plates are scanned on a Li—COR Odyssey CLx Imager. Analysis of raw data is carried out in Excel (Microsoft) and Prism (GraphPad). Signal is plotted vs. the decadal logarithm of compound concentration, and IC50 is determined by fitting a 4-parameter sigmoidal concentration response model.

SMILES: CO[C@@H](C)c1ncc(C2CN(C3CC3)C2)cc1-c1c2c3cc(ccc3n1CCOC1CCOCC1)-c1csc(n1)[C@@H](N1CC3(COC3)C1)[C@H](NC(=O)[C@@H]1OC[C@@H]1C)C(=O)N1CCC[C@H](N1)C(=O)OCC(C)(C)C2
ring closure, yield after HPLC ([1]; from CO[C@@H](C)c1ncc(C2CN(C3CC3)C2)cc1-c1c(CC(C)(C)CO)c2cc(-c3csc([C@H]([C@H](NC(=O)[C@@H]4OC[C@@H]4C)C(=O)N4CCC[C@@H](C(=O)O)N4)N4CC5(COC5)C4)n3)ccc2n1CCOC1CCOCC1, MeCN, 1.44 mM, 35.0 °C, 3.0 h): 20%

SMILES: COC1CN([C@@H]2c3nc(cs3)-c3ccc4c(c3)c(c(-c3cccnc3[C@H](C)OC)n4C3CN(C4CC4)C3)CC(C)(C)COC(=O)[C@@H]3CCCN(N3)C(=O)[C@H]2NC(=O)OC(C)(C)C)C1
ring closure, yield after HPLC ([1]; from COC1CN([C@H](c2nc(-c3ccc4c(c3)c(CC(C)(C)CO)c(-c3cccnc3[C@H](C)OC)n4C3CN(C4CC4)C3)cs2)[C@H](NC(=O)OC(C)(C)C)C(=O)N2CCC[C@@H](C(=O)O)N2)C1, DMF, 11.2 mM, 25.0 °C, 5.0 h): 40.2%

SMILES: CO[C@@H](C)c1ncccc1-c1c2c3cc(ccc3n1C1CC(C#N)C1)-c1coc(n1)[C@@H](N1CC3(COC3)C1)[C@H](NC(=O)OC(C)(C)C)C(=O)N1CCC[C@H](N1)C(=O)OCC(C)(C)C2 (stereo partly shown)
ring closure, yield after HPLC ([1]; from CO[C@@H](C)c1ncccc1-c1c(CC(C)(C)CO)c2cc(-c3coc([C@H]([C@H](NC(=O)OC(C)(C)C)C(=O)N4CCC[C@@H](C(=O)O)N4)N4CC5(COC5)C4)n3)ccc2n1C1CC(C#N)C1, DMF, 12.5 mM, 25.0 °C, 2.0 h): 27.4%

IC50 (K-RasG12V (Capan-1)): < 650 nM
SMILES: CO[C@@H](C)c1ncccc1-c1c2c3cc(ccc3n1C1CN(C3CC3)C1)-c1coc(n1)[C@@H](N1CC3(CCCN3C)C1)[C@H](NC(=O)[C@@H]1[C@@H](C)[C@H]1c1ccncn1)C(=O)N1CCC[C@H](N1)C(=O)OCC(C)(C)C2 (atropisomer, axis not shown) [Example A1086]

— patent US20250154171A1, “RAS INHIBITORS” (Revolution Medicines, Inc., priority 2023, published 2025)
